Assays:
[1] = molecular target: human α3β3γ2 GABAARs (benzodiazepine site) (Homo sapiens (Human), UniProt P18507+P34903); assay: In vitro radioligand binding assay ([3H]Ro15-1788 displacement), α3-GABAAR Ki; details: L(tk-) cell membranes, 4 nM [3H]Ro15-1788
Protocol: The affinity (Ki) of compounds for the benzodiazepine site of human recombinant GABAARs was measured by their ability to inhibit the binding of the selective benzodiazepine antagonist [^3H]Ro15-1788 ([^3H] flumazenil).
Mouse L(tk^−) cells stably expressing human α1β3γ2, α2β3γ2, α3β3γ2, α5β3γ2 GABAARs were generated by transfection of the individual subunits in the dexamethasone-inducible expression vector pMSGneo in mouse L(tk^−) cells (Hadingham et al., 1993, Mol. Pharmacol. 43:970-975 and 1993, Mol. Pharmacol. 44:1211-1218).
L(tk^−) cells stably expressing human α1β3γ2, α2β3γ2, α3β3γ2, α5β3γ2 GABAARs were maintained in DMEM F12 medium supplemented with 10% Foetal Bovine Serum, 1% Penicillin/Streptomycin and 1 mg/mL Geneticin G418 in an incubator at 37° C. with a humidified atmosphere with 5% CO2. Dexamethasone was added to the culture medium to induce GABAAR expression.
L(tk−) cells were harvested and membranes were prepared for each receptor combination in either TE buffer (10 mM Tris·CI/0.1 mM EDTA, pH 7.5) or phosphate buffer (K2PO4 10 mM, pH 7.0) (Hadingham et al. (1992) Proc. Natl. Acad. Sci. USA; 89 (14): 6378-82). Protein concentration, receptor expression and the Kd of [^3H]Ro15-1788 were determined before Ki value of the compounds were evaluated. For Kd evaluation, saturation binding curves were obtained by incubating membrane with various concentrations of [^3H]Ro15-1788 (82.5 Ci/mM), with nonspecific binding measured in the presence of 1-3 μM TP003.
For Ki evaluation, cell membranes were incubated with 4 nM [^3H]Ro15-1788 along with a range of concentrations of test compound. Nonspecific binding was determined using 1-3 μM TP003. All incubations were performed for 1 hour at 4° C. in assay buffer. The total assay volume was 0.5 mL, containing 40 μg/well α1β3γ2, 30 μg/well α2β3γ2, 40 μg/well α3β3γ2 and 30 μg/well for α5β3γ2 of membrane protein. Incubations were terminated by filtration and washing with ice cold Tris-HCl buffer (50 mM, pH=7.4) over Whatman GF/B filters and the radioactivity of the filters was measured using liquid scintillation counting.
The % inhibition of [^3H]Ro15-1788 binding was plotted as a function of compound concentration and the IC50 calculated. From the IC50, the affinity (Ki) was calculated using the method of Cheng and Prusoff using the Kd values obtained for [^3H]Ro15-1788.

human α2β3γ2 GABAARs = assay: In vitro electrophysiological recording assay (automated patch-clamp), α2-GABAAR relative efficacy; assay type: cell-based; details: % efficacy normalised to diazepam; GABA EC10-20; concentration generally >= 100 times Ki
Procedure, shortened: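 Automated whole-cell patch clamp at 20-22° C on L(tk^−) cells (QPatch, −65 mV) or HEK293 cells (SyncroPatch, −80 mV) stably expressing the human receptor. Compound pre-applied ≥1 min, then co-applied with GABA EC10-20; % potentiation of leak-corrected peak current, normalised to diazepam, typically at ≥100× Ki.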

human α3β3γ2 GABAARs = assay: In vitro electrophysiological recording assay (automated patch-clamp), α3-GABAAR relative efficacy; assay type: cell-based; details: % efficacy normalised to diazepam; GABA EC10-20; concentration generally >= 100 times Ki
Protocol: The efficacy of modulators was evaluated using the automated patch-clamp platforms QPatch16 (Sophion, Copenhagen, Denmark) or SyncroPatch 384PE (Nanion, Germany).
For QPatch electrophysiology testing L(tk^−) cells stably expressing human α1β3γ2, α2β3γ2, α3β3γ2, α5β3γ2 GABAARs were used. HEK293 cells stably expressing human α1β3γ2L, α2β3γ2L, α3β3γ2L and α5β3γ2L GABAARs were used for the SyncroPatch 384PE experiments.
All experiments were carried out at room temperature (20-22° C.) using a standard whole cell procedure and physiological solutions. Gigaseals were formed upon execution of a combined suction/voltage protocol with subsequent increased suction leading to the whole-cell configuration.
The currents recorded were acquired at either 1 KHz or 2 KHz and filtered using a Bessel filter. Whole-cell currents were measured at a holding potential of-65 mV (QPatch) or −80 mV (SyncroPatch).
For QPatch experiments, the extracellular solution contained of: 145 mM NaCl, 4 mM KCl, 1 mM MgCl2, 2 mM CaCl2), 10 mM HEPES, 10 mM D-glucose (pH 7.4), and the intracellular solution consisted of: 96 mM KCl, 28 mM CsCl, 25 mM KOH, 4.3 mM CaCl2), 1.4 mM MgCl2, 10 mM EGTA, 10 mM HEPES, 3 mM MgATP (pH 7.2). The osmolarities of the extracellular and intracellular solutions were 305 and 295 mOsm respectively.
For SyncroPatch experiments, the extracellular recording solution contained: 140 mM NaCl, 4 mM KCl, 2 mM CaCl2), 1 mM MgCl2, 10 mM HEPES, 5 mM glucose (pH 7.4 with NaOH and osmolarity of c. 300-310 mOsm). The intracellular recording solution consisted of: 90 mM KCl, 50 mM KF, 1.5 mM MgCl2, 11.1 mM EGTA and 10 mM HEPES (pH 7.2 with KOH and osmolarity of c. 300 mOsm). 2 mM of NaATP was added to the intracellular solution on the day of testing.
The effects of modulators were evaluated in the presence of a submaximal GABA concentration, giving typically less than 30% activation of the response elicited by a saturating GABA concentration. To check and ensure baseline current stability before compound addition, two to five consecutive applications of GABA EC10-20 separated by wash steps were performed before compound addition. The test compound was applied 1 min at least prior to co-application with GABA EC10-20. Following a further wash step, a saturating concentration of GABA was applied at the end of each recording, allowing the accurate evaluation for each cell of the percentage baseline activation elicited by the submaximal GABA applied.
The compounds were first dissolved in DMSO as a 10 mM stock and then further diluted to the testing concentrations so that the final DMSO concentration in the extracellular recording solution was 0.1% (QPatch) or 0.2% (SyncroPatch).
The % efficacy of modulators was determined from the GABA elicited currents recorded in the presence and absence of the test compound, using the formula:
[((compound peak current−leak)−(GABA peak current-leak))/(GABA peak current−leak)]*100,
where ‘leak’ is the leak baseline current at the holding potential, ‘compound peak current’ is the current elicited by co-application of compound and GABA, and ‘GABA peak current’ is the current elicited by GABA alone at the last GABA application before compound addition. The results were presented as ‘relative efficacy’ for each compound generally at a concentration equal or higher than 100 times their determined Ki. The relative efficacy of a compound was calculated by normalising its % efficacy to the corresponding % efficacy of diazepam that was separately determined.

[2] = molecular target: human α2β3γ2 GABAARs (benzodiazepine site) (Homo sapiens (Human), UniProt P18507+P47869); assay: In vitro radioligand binding assay ([3H]Ro15-1788 displacement), α2-GABAAR Ki
Procedure, shortened: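 Membranes from dexamethasone-induced mouse L(tk−) cells stably expressing the human receptor were incubated 1 h at 4° C with 4 nM [3H]Ro15-1788 and graded compound; nonspecific binding with 1-3 μM TP003. Filter-bound radioactivity counted; Ki from IC50 by Cheng-Prusoff using the measured radioligand Kd.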

Chain of human α2β3γ2 GABAARs (benzodiazepine site) (P47869 29-451): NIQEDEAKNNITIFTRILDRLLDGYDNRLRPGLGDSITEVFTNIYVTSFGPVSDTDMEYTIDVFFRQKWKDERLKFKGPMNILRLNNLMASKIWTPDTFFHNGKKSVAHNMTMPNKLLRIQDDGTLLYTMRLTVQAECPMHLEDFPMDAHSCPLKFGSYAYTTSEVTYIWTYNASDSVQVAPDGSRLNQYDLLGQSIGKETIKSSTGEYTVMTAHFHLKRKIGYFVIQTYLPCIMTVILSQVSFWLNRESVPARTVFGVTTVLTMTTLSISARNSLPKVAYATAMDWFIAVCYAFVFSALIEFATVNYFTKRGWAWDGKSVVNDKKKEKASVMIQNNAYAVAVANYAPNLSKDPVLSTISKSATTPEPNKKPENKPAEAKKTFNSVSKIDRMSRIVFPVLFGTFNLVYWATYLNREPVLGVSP
Chain of human α2β3γ2 GABAARs (benzodiazepine site) (P28472 26-473 partner): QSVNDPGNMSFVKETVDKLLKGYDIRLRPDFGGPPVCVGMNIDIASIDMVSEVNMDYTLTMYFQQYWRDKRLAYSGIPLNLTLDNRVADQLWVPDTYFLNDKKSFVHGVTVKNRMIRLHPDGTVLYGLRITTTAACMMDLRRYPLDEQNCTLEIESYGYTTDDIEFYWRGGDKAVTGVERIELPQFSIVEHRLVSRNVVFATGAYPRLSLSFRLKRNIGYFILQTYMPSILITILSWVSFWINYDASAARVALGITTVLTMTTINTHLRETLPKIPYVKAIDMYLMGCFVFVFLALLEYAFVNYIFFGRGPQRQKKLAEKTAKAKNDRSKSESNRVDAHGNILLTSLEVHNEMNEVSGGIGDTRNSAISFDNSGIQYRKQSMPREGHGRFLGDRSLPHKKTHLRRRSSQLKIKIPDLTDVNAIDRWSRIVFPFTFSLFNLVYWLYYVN
Chain of human α2β3γ2 GABAARs (benzodiazepine site) (P18507 40-475): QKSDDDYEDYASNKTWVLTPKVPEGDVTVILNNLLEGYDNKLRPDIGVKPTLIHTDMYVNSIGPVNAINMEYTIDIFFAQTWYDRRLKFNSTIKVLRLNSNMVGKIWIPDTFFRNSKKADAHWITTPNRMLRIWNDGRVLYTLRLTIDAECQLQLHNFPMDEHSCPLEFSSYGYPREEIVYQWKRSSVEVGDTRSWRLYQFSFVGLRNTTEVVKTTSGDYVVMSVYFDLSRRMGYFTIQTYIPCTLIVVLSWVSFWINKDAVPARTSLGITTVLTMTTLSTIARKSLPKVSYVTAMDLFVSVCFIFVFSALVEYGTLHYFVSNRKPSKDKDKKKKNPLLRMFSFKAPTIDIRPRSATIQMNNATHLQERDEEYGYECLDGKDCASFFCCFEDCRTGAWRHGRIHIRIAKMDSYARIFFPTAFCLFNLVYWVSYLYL

Which Ki [1] does the source give for `CCCNC(=O)c1c(N)c2cccc(-c3nc(C)ccc3F)c2[nH]c1=O` [Example 7, 4-Amino-8-(3-fluoro-6-methyl-2-pyridyl)-2-oxo-N-propyl-1H-quinoline-3-carboxamide] here?
Its Ki is 1.17 nM.

And the “α2-GABAAR Relative Efficacy (vs. Diazepam)” value (“α2-GABAAR Relative Efficacy” for short) (human α2β3γ2 GABAARs)?
Its value is 0.16.

What about the “α3-GABAAR Relative Efficacy (vs. Diazepam)” value (from here on “α3-GABAAR Relative Efficacy”) (human α3β3γ2 GABAARs) of the same compound?
The value was 0.43.

What about the Ki [2] of the same compound?
The Ki was 0.59 nM.

With `CCCNC(=O)c1c(N)c2cccc(-c3nc(CO)ccc3F)c2[nH]c1=O` [Example 11, 4-Amino-8-[3-fluoro-6-(hydroxymethyl)-2-pyridyl]-2-oxo-N-propyl-1H-quinoline-3-carboxamide] as the compound, how does the Ki [1] read?
The Ki was 4.38 nM.

What about the “α2-GABAAR Relative Efficacy” value (human α2β3γ2 GABAARs) of the same compound?
Its value is 0.32.

What about the “α3-GABAAR Relative Efficacy” value (human α3β3γ2 GABAARs) of the same compound?
Its value is 0.24.

What about the Ki [2] of the same compound?
The Ki was 2.13 nM.

What does the source list for `CCCNC(=O)c1c(N)c2cccc(-c3cncc(CO)c3)c2[nH]c1=O` [Example 25, 4-Amino-8-[5-(hydroxymethyl)-3-pyridyl]-2-oxo-N-propyl-1H-quinoline-3-carboxamide]?
α2-GABAAR Relative Efficacy (vs. Diazepam) (human α2β3γ2 GABAARs): 0.15; α3-GABAAR Relative Efficacy (vs. Diazepam) (human α3β3γ2 GABAARs): 0.10; Ki [2]: 3.4 nM

`CCCNC(=O)c1c(N)c2cccc(-c3ccnc(CO)c3)c2[nH]c1=O` [Example 32, 4-Amino-8-[2-(hydroxymethyl)-4-pyridyl]-2-oxo-N-propyl-1H-quinoline-3-carboxamide] was tested. Which Ki [1] did it give?
Its Ki is 6.86 nM.

What about the “α2-GABAAR Relative Efficacy” value (human α2β3γ2 GABAARs) of the same compound?
Its value is 0.24.

And the “α3-GABAAR Relative Efficacy” value (human α3β3γ2 GABAARs)?
Its value is 0.29.

What about the Ki [2] of the same compound?
The Ki was 3.09 nM.

`CCCNC(=O)c1c(N)c2cccc(-c3cc(OC)ncc3F)c2[nH]c1=O` [Example 34, 4-Amino-8-(5-fluoro-2-methoxy-4-pyridyl)-2-oxo-N-propyl-1H-quinoline-3-carboxamide] was tested. Which Ki [1] did it give?
Its Ki is 1.58 nM.

What about the “α2-GABAAR Relative Efficacy” value (human α2β3γ2 GABAARs) of the same compound?
The value was 0.49.

And the “α3-GABAAR Relative Efficacy” value (human α3β3γ2 GABAARs)?
The value was 0.47.

What about the Ki [2] of the same compound?
Its Ki is 0.68 nM.

With `CCCNC(=O)c1c(N)c2cccc(-c3cccc4c3OC(F)(F)O4)c2[nH]c1=O` [Example 51, 4-Amino-8-(2,2-difluoro-1,3-benzodioxol-4-yl)-2-oxo-N-propyl-1H-quinoline-3-carboxamide] as the compound, how does the Ki [1] read?
Its Ki is 1.63 nM.

And the “α2-GABAAR Relative Efficacy” value (human α2β3γ2 GABAARs)?
Its value is 0.31.

And the Ki [2]?
Its Ki is 1.71 nM.

Which “α2-GABAAR Relative Efficacy” value (human α2β3γ2 GABAARs) does the source give for `CCCNC(=O)c1c(N)c2cccc(-c3nc(C)[nH]c3C)c2[nH]c1=O` [Example 52, 4-Amino-8-(2,5-dimethyl-1H-imidazol-4-yl)-2-oxo-N-propyl-1H-quinoline-3-carboxamide] here?
Its value is 0.53.

And the “α3-GABAAR Relative Efficacy” value (human α3β3γ2 GABAARs)?
The value was 0.41.

And the Ki [2]?
The Ki was 6.61 nM.

How did the Ki [1] turn out when `CCCNC(=O)c1c(N)c2cccc(-c3ccnn3C)c2[nH]c1=O` [Example 53, 4-Amino-8-(2-methylpyrazol-3-yl)-2-oxo-N-propyl-1H-quinoline-3-carboxamide] was run?
Its Ki is 18.4 nM.

What about the “α2-GABAAR Relative Efficacy” value (human α2β3γ2 GABAARs) of the same compound?
The value was 0.17.

What about the Ki [2] of the same compound?
Its Ki is 8.05 nM.

Which results are given for `CCCNC(=O)c1c(N)c2cccc(-c3cc(OCc4cccc(C)n4)ccc3F)c2[nH]c1=O` [Example 88, 4-Amino-8-[2-fluoro-5-[(6-methyl-2-pyridyl)methoxy]phenyl]-2-oxo-N-propyl-1H-quinoline-3-carboxamide]?
Ki [1]: 1.37 nM; α2-GABAAR Relative Efficacy (vs. Diazepam) (human α2β3γ2 GABAARs): 0.26; Ki [2]: 1.97 nM

Which Ki [1] does the source give for `CCCNC(=O)c1c(N)c2cccc(-c3cc(OCc4csc(C)n4)ccc3F)c2[nH]c1=O` [Example 120, 4-Amino-8-(2-fluoro-5-((2-methylthiazol-4-yl)methoxy)phenyl)-2-oxo-N-propyl-1,2-dihydroquinoline-3-carboxamide] here?
Its Ki is 1.18 nM.

And the “α2-GABAAR Relative Efficacy” value (human α2β3γ2 GABAARs)?
The value was 0.21.

What about the Ki [2] of the same compound?
The Ki was 1.19 nM.

With `CCCNC(=O)c1c(N)c2cccc(-c3cc(OCc4cocn4)ccc3F)c2[nH]c1=O` [Example 121, 4-Amino-8-[2-fluoro-5-(oxazol-4-ylmethoxy)phenyl]-2-oxo-N-propyl-1H-quinoline-3-carboxamide] as the compound, how does the Ki [1] read?
The Ki was 0.61 nM.

What about the “α2-GABAAR Relative Efficacy” value (human α2β3γ2 GABAARs) of the same compound?
Its value is 0.35.

What about the Ki [2] of the same compound?
Its Ki is 0.3 nM.

For `CCCNC(=O)c1c(N)c2cccc(-c3cc(OCc4coc(C)n4)ccc3F)c2[nH]c1=O` [Example 122, 4-Amino-8-(2-fluoro-5-((2-methyloxazol-4-yl)methoxy)phenyl)-2-oxo-N-propyl-1,2-dihydroquinoline-3-carboxamide], which Ki [1] is on record?
Its Ki is 3.56 nM.

And the “α2-GABAAR Relative Efficacy” value (human α2β3γ2 GABAARs)?
Its value is 0.33.

What about the Ki [2] of the same compound?
The Ki was 0.89 nM.

`CCCNC(=O)c1c(N)c2cccc(-c3cc(OCc4nnc(C(F)(F)F)o4)ccc3F)c2[nH]c1=O` [Example 132, 4-Amino-8-[2-fluoro-5-[[5-(trifluoromethyl)-1,3,4-oxadiazol-2-yl]methoxy]phenyl]-2-oxo-N-propyl-1H-quinoline-3-carboxamide] was tested. Which Ki [1] did it give?
Its Ki is 1.19 nM.

And the “α2-GABAAR Relative Efficacy” value (human α2β3γ2 GABAARs)?
Its value is 0.24.

And the Ki [2]?
The Ki was 0.66 nM.

How did the Ki [1] turn out when `CCCNC(=O)c1c(N)c2cccc(-c3cc(CN4CCC5(CC4)CN(C)C5)ccc3F)c2[nH]c1=O` [Example 144, 4-Amino-8-(2-fluoro-5-((2-methyl-2,7-diazaspiro[3.5]nonan-7-yl)methyl)phenyl)-2-oxo-N-propyl-1,2-dihydroquinoline-3-carboxamide] was run?
The Ki was 5.43 nM.

What about the “α2-GABAAR Relative Efficacy” value (human α2β3γ2 GABAARs) of the same compound?
Its value is 0.41.

What about the Ki [2] of the same compound?
Its Ki is 1.99 nM.
